Here are results for five molecules from patent EP0094815B1, “Oligopeptide prodrugs” (SMITHKLINE BECKMAN CORPORATION, priority 1982, dated 1983).

One data set relates to C. albicans. Put plainly: Minimum inhibitory concentration, two-fold broth dilution (Method B). Format: cell-based, Candida albicans. To be noted: C. albicans in Method B; text summary of MIC table (table is an image). The protocol: (§1) The minimum inhibitory concentration of the test compound was determined by two-fold broth dilution tests in yeast carbon base medium, containing 200 pg/ml of sodium glutamate. The compounds were diluted from […] to 0.25 pg/ml and the test medium was inoculated with a suspension of C. albicans grown in the same medium for 15 hours at 37°. The final inoculum sizes in the tests were approximately 10^4 cfu/ml and 10^3 cfu/ml. The tubes were incubated at 37° for 24 and 48 hours and observed for inhibition.
(In general: Broth dilution looks for growth in wells or tubes with falling amounts of substance.)

Data set [1] can be described thus: Stability of a-substituted glycine peptides in aqueous buffer (Ellman colorimetric assay). To be noted: for half-life: 0.2 M phosphate buffer (pH 7.0), no enzyme, read-out: stable (t). Format: physicochemical. On the technique in general: In Ellman's method for cholinesterases, released thiocholine reacts with DTNB.
Another data set deals with Leucine Aminopeptidase. The data set is described as follows: Enzyme catalyzed warhead release (Ellman colorimetric assay). Format: biochemical, hog. To be noted: pH 7.0; linear rate over the observation period (5 min). As to the method: In each case upon addition of the enzyme, Leucine Aminopeptidase, the warhead was released. The release was maintained at a linear rate over the observation period (5 min). […] These observations are consistent with literature reports of the optimal pH necessary for the efficacy of this enzyme. These observations were obtained by colorimetric assay, which involves the reaction between a free sulfhydryl group and 5,5'-dithio-bis(2-nitrobenzoic acid), the Ellman reagent, to produce a yellow color as follows: [drawing 44] The peptide from Example 4 was dissolved in 4 mM of phosphate buffer solution (pH 7) containing the Ellman reagent at a level of 4 mg/ml to produce a 1 mM solution of the peptide. The resulting mixture was monitored using a spectrophotometer at a wavelength of 412 nm. To 1 ml of this solution was added 100 µg of hog kidney leucine aminopeptidase (Sigma) and the enzymatic hydrolysis was continuously monitored at 412 nm.

Data set [2] has as its system representative fungal and bacterial organisms. The data set is described as follows: Biological screen of the utility (antimicrobial) example. To be noted: product of first deblocking, later found not completely deblocked. Format: cell-based. The protocol:
A prototypal compound, L-alanyl-2-(5-fluorouracil-2-yl)-L-glycine, was evaluated against representative fungal and bacterial organisms.
Candida albicans strains B―311 and BC 759, obtained from Smith Kline and French Laboratory Culture Collection were grown in a trypticase soy broth at 28° for 7 hours. The seeded plates, with this medium containing 1.5% agar, were prepared by inoculating 1 ml of the inoculum in 1 I of yeast-carbon base medium, containing 200 µg/ml of lysine or glutamate as a sole source of nitrogen.
as §1
A method similar to A above but using E. coli was used which employs a M-9 medium (basic salts with ammonium ion as the nitrogen source and glucose as the carbon source).

In the case of `C[C@H](N)C(=O)NC(C(=O)O)n1cc(F)c(=O)[nH]c1=O` (mixture of isomers) [L-, DL, L-alanyl-2-(5-fluorouracil-1-yl)-D,L-glycine], the antifungal activity entry in the data set on C. albicans was “antifungal activity”. Turning to `C[C@H](N)C(=O)NC(SCCNc1cc(C(=O)O)nc(C(=O)O)c1)C(=O)O` (stereo partly shown) [Example 4], the half-life in data set [1] was above 83.3 h. Besides, the non-enzymatic warhead release result in data set [1] (pH 7.5) was “no noticeable increases”. For the same molecule, the “warhead release upon addition of the enzyme” value in the data set on Leucine Aminopeptidase is “released”.

Consider `C[C@H](N)C(=O)NC(NNS(=O)(=O)c1cc(C(=O)O)cc(C(=O)O)c1)C(=O)O` (stereo partly drawn) [Example 12, L-alanyl-2-(3,5-dicarboxy-phenylsulfohydrazino)-D,L-glycine], for which the “activity in the biological screen” value in data set [2] is given as “not active”.

For `C[C@H](N)C(=O)NC(Sc1ccccc1)C(=O)O` (stereo partly drawn) [Example 13, L-alanyl-2-(thiophenyl)-D,L-glycine], the half-life in data set [1] is above 83.3 h.

Take `C[C@H](N)C(=O)NC(C(=O)O)n1cc(F)c(=O)[nH]c1=O` (stereo partly drawn) [L-L, L-alanyl-2-(5-fluorouracil-2-yl)-L-glycine]: in the data set with C. albicans, the antifungal activity result is “antifungal activity”.
